Key:
[1] = biological target: Disintegrin and metalloproteinase domain-containing protein 17 (Homo sapiens, UniProt P78536); test: Inhibition of heparin-binding epidermal growth factor (HB-EGF) shedding; type: functional
[2] = biological target: Matrix metalloproteinase-9 (Homo sapiens, UniProt P14780); test: Inhibition of Matrix metalloprotease-9 (MMP-9)
Homo sapiens = species: Homo sapiens; test: Stability in human plasma and percentage of compound remained after 60 minutes was reported; type: functional, cell-free
Stromelysin-1 = Stromelysin-1 (Homo sapiens, UniProt P08254); test: Inhibition of Matrix metalloprotease-3 (MMP-3)
Sequence of Stromelysin-1 (P08254 whole entry): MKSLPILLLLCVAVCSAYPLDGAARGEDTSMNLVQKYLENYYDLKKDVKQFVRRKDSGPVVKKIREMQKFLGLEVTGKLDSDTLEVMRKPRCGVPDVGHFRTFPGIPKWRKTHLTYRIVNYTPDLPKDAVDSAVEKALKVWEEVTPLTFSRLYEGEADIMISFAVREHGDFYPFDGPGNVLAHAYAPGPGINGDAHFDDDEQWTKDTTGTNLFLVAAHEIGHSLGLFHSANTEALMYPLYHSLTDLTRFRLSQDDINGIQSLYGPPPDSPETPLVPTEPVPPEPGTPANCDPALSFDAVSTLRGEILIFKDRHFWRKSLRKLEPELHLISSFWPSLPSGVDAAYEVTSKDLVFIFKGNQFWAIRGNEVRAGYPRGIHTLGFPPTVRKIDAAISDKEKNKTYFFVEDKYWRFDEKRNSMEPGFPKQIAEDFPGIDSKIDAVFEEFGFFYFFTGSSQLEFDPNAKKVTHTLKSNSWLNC

Interstitial collagenase = biological target: T1, Interstitial collagenase (Homo sapiens, UniProt P03956); test: Inhibition of Matrix metalloprotease-1 (MMP-1)
T1 sequence (P03956 whole entry): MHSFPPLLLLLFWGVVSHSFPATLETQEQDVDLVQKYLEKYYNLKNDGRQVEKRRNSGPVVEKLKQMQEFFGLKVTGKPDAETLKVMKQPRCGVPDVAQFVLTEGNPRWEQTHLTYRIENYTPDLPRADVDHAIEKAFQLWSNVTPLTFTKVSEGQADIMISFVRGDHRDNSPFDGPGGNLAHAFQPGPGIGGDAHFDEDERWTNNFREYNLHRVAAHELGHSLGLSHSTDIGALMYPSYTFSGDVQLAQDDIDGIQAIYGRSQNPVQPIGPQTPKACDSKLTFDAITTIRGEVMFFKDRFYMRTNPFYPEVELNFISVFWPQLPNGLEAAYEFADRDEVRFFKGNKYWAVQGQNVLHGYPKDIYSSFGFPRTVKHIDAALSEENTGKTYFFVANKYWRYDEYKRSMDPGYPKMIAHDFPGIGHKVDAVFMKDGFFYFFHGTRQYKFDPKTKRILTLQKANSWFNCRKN

Amphiregulin = biological target: T2, Amphiregulin (Homo sapiens, UniProt P15514); test: In vitro amphiregulin shedding inhibition; type: functional
T2 sequence (P15514 whole entry): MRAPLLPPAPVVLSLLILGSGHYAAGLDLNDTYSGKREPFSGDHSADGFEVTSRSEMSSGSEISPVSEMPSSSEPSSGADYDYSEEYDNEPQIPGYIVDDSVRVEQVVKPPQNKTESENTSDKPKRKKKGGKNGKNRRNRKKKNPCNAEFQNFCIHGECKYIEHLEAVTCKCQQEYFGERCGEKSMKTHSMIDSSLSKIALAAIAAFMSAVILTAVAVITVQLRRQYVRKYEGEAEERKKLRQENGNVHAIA

Mus musculus [3] = species: Mus musculus; test: Activity against TPA-induced epidermal hyperplasia in mice, and epidermal thickness value was reported; type: functional; design: unit not given here
Mus musculus [4] = species: Mus musculus; test: Activity against TPA-induced epidermal hyperplasia in mice, and percent decrease in TPA-induced hyperplasia was reported; type: functional

Sequence of Matrix metalloproteinase-9 (P14780 whole entry): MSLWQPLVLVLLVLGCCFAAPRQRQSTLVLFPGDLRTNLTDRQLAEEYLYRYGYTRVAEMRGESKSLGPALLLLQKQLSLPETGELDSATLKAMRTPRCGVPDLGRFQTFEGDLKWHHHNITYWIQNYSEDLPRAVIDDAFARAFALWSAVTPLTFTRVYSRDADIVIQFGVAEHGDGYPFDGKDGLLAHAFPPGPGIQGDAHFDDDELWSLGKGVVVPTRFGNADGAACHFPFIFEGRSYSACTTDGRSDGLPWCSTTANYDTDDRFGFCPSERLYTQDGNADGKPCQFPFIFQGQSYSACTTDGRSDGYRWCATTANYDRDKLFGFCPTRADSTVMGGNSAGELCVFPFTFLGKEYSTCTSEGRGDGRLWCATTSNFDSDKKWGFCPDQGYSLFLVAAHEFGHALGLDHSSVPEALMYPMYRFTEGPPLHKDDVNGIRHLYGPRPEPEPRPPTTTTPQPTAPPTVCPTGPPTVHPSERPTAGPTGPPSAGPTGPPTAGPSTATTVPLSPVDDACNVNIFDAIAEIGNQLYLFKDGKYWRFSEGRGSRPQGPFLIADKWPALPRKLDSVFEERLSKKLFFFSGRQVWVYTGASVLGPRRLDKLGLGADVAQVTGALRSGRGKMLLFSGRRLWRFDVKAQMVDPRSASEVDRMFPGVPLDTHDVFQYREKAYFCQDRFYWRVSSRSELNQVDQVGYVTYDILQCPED
Sequence of Disintegrin and metalloproteinase domain-containing protein 17 (P78536 whole entry, the tested form may be a part): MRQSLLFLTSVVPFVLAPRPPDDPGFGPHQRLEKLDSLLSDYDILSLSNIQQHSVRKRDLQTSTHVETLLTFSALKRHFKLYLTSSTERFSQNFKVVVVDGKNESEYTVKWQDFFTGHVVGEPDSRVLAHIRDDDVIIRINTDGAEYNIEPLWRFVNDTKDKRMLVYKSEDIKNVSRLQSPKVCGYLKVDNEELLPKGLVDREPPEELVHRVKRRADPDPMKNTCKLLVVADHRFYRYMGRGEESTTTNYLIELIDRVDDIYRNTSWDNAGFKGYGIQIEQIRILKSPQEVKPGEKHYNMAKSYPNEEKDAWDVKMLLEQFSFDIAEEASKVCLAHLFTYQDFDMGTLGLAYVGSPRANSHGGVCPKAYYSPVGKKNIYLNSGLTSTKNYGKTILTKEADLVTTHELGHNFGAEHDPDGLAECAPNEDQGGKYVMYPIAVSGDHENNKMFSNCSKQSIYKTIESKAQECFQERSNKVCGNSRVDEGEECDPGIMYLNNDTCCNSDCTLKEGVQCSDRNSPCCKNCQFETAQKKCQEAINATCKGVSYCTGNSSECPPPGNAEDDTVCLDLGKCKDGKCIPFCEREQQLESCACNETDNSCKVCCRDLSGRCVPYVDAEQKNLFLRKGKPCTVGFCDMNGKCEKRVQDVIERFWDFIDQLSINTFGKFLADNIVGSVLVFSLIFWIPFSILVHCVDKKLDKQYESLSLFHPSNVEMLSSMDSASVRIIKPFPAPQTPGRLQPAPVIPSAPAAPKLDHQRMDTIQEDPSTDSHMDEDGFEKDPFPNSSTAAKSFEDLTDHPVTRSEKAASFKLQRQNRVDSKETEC

`CCO[P@](=O)(c1ccc(OC)cc1)N1Cc2ccccc2C[C@@H]1C(=O)NO` was tested, and the IC50 [1] was > 10000 nM and the Ki [2] was > 800 nM.
Compound `CCO[P@@](=O)(c1ccc(OC)cc1)N1Cc2ccccc2C[C@@H]1C(=O)NO` has an IC50 [1] of 230 nM, a Stability (Homo sapiens) of 100% and a Ki (Stromelysin-1) of 5.2 nM. For the same compound, the Ki [2] was 5.05 nM, the Ki (Interstitial collagenase) was 4.59 nM and the IC50 (Amphiregulin) was 350 nM.
With `CCCCCCCCCCCCCC(=O)O[C@@H]1[C@@H](C)[C@]2(O)C3C=C(C)C(=O)[C@@]3(O)CC(CO)=C[C@H]2[C@@H]2C(C)(C)[C@]12OC(C)=O.CCO[P@@](=O)(c1ccc(OC)cc1)N1Cc2ccccc2C[C@@H]1C(=O)NO` (stereo partly specified) the Epidermal thickness (Mus musculus [3]) was <44.4 and the Decrease (Mus musculus [4]) was 45.6%.
For `CCCCCCCCCCCCCC(=O)O[C@@H]1[C@@H](C)[C@]2(O)C3C=C(C)C(=O)[C@@]3(O)CC(CO)=C[C@H]2[C@@H]2C(C)(C)[C@]12OC(C)=O.COc1ccc([P@](=O)(OCC(F)F)N2Cc3ccccc3C[C@@H]2C(=O)NO)cc1` (stereo partly specified), the Epidermal thickness (Mus musculus [3]) was <39.7 and the Decrease (Mus musculus [4]) was 57.7%.
Work on `COc1ccc([P@](=O)(OCCF)N2Cc3ccccc3C[C@@H]2C(=O)NO)cc1` yielded an IC50 [1] of 180 nM, a Stability (Homo sapiens) of 96% and a Ki (Stromelysin-1) of 9.07 nM. For the same compound, the Ki [2] was 10.5 nM, the Ki (Interstitial collagenase) was 10.5 nM and the IC50 (Amphiregulin) was 470 nM.
`COc1ccc([P@](=O)(OCC(F)(F)F)N2Cc3ccccc3C[C@@H]2C(=O)NO)cc1` showed an IC50 [1] of 730 nM, a Ki (Stromelysin-1) of 6.75 nM and a Ki [2] of 3.68 nM. It also gave a Ki (Interstitial collagenase) of 6.57 nM and an IC50 (Amphiregulin) of 950 nM.
Work on `COc1ccc([P@](=O)(OCC(F)F)N2Cc3ccccc3C[C@@H]2C(=O)NO)cc1` yielded an IC50 [1] of 510 nM, a Ki (Stromelysin-1) of 6.67 nM and a Ki [2] of 4.97 nM. The Ki (Interstitial collagenase) was 6 nM and the IC50 (Amphiregulin) was 1470 nM.
`COc1ccc(P(=O)(OC)N2Cc3ccccc3CC2C(=O)NO)cc1` (stereo unspecified) was tested, and the IC50 [1] was < 1000 nM.
In the case of `CCCCCCCCCCCCCC(=O)O[C@@H]1[C@@H](C)[C@]2(O)C3C=C(C)C(=O)[C@@]3(O)CC(CO)=C[C@H]2[C@@H]2C(C)(C)[C@]12OC(C)=O.COc1ccc([P@](=O)(OCC(F)(F)F)N2Cc3ccccc3C[C@@H]2C(=O)NO)cc1` (stereo partly specified), the Epidermal thickness (Mus musculus [3]) is reported as <30.5 and the Decrease (Mus musculus [4]) is reported as 81.3%.
With `O=C(NO)C1Cc2ccccc2CN1` (stereo unspecified) the IC50 [1] was > 10000 nM, the Ki (Stromelysin-1) was > 650 nM and the Ki [2] was > 800 nM.
`COc1ccc([P@](=O)(OCCC(F)(F)F)N2Cc3ccccc3C[C@@H]2C(=O)NO)cc1` gave an IC50 [1] of 310 nM, a Stability (Homo sapiens) of 99% and a Ki (Stromelysin-1) of 3.33 nM. For the same compound, the Ki [2] was 4.46 nM, the Ki (Interstitial collagenase) was 2.21 nM and the IC50 (Amphiregulin) was 970 nM.
With `CCCCCCCCCCCCCC(=O)O[C@@H]1[C@@H](C)[C@@]2(O)[C@@H](C=C(CO)C[C@]3(O)C(=O)C(C)=C[C@@H]23)[C@@H]2C(C)(C)[C@]12OC(C)=O` [PHORBOL MYRISTATE ACETATE] the Epidermal thickness (Mus musculus [3]) was 62.2.
